Tests used:
[1] = test system: normal NK cells expanded with K562-aAPC; test: percent inhibition of viability; higher = more inhibition; conditions: 72 h, IL-2 2.5 ng/mL
Procedure: (§1)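 Drug sensitivity and resistance testing on K562-aAPC-expanded normal NK cells: 5 concentrations (10-fold steps over a 10,000-fold range), 72 h at 37 °C, viability by CellTiter-Glo normalised to DMSO and benzethonium chloride controls; DSS from the fitted curve.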

[2] = test system: normal primary NK cells, pool 1 (3 donors), resting (IL-2 0 ng/mL); test: drug sensitivity score (DSS) (DSS units); higher = more sensitive; extreme values may be limits of the assay; conditions: 72 h
[3] = test system: DERL-7 (IL-2 2.5 ng/mL); test: as above; conditions: 72 h
[4] = test system: normal primary NK cells, pool 3 (3 donors) (IL-2 2.5 ng/mL); test: as above; conditions: 72 h
[5] = test system: KAI3 (IL-2 2.5 ng/mL); test: as above; conditions: 72 h
[6] = test system: YT (IL-2 2.5 ng/mL); test: as above; conditions: 72 h
[7] = test system: KHYG-1 (IL-2 2.5 ng/mL); test: as above; conditions: 72 h
[8] = test system: NK-92 (IL-2 2.5 ng/mL); test: as above; conditions: 72 h
[9] = test system: SNK-6 (IL-2 2.5 ng/mL); test: as above; conditions: 72 h
[10] = test system: normal primary NK cells, pool 2 (3 donors) (IL-2 2.5 ng/mL); test: as above; conditions: 72 h
[11] = test system: NKL (IL-2 2.5 ng/mL); test: as above; conditions: 72 h
[12] = test system: NK-YS (IL-2 2.5 ng/mL); test: as above; conditions: 72 h
[13] = test system: IMC-1 (IL-2 20 ng/mL); test: as above; conditions: 72 h
[14] = test system: normal primary NK cells, pool 1 (3 donors) (IL-2 2.5 ng/mL); test: as above; conditions: 72 h
[15] = test system: normal primary NK cells, pool 1 (3 donors), resting (IL-2 0 ng/mL); test: percent inhibition of viability; higher = more inhibition; conditions: 72 h
[16] = test system: DERL-7 (IL-2 2.5 ng/mL); test: as above; conditions: 72 h
[17] = test system: normal primary NK cells, pool 3 (3 donors) (IL-2 2.5 ng/mL); test: as above; conditions: 72 h
[18] = test system: KAI3 (IL-2 2.5 ng/mL); test: as above; conditions: 72 h
[19] = test system: YT (IL-2 2.5 ng/mL); test: as above; conditions: 72 h
[20] = test system: KHYG-1 (IL-2 2.5 ng/mL); test: as above; conditions: 72 h
[21] = test system: NK-92 (IL-2 2.5 ng/mL); test: as above; conditions: 72 h
[22] = test system: SNK-6 (IL-2 2.5 ng/mL); test: as above; conditions: 72 h
[23] = test system: normal primary NK cells, pool 2 (3 donors) (IL-2 2.5 ng/mL); test: as above; conditions: 72 h
[24] = test system: NKL (IL-2 2.5 ng/mL); test: as above; conditions: 72 h
[25] = test system: NK-YS (IL-2 2.5 ng/mL); test: as above; conditions: 72 h
[26] = test system: IMC-1 (IL-2 20 ng/mL); test: as above; conditions: 72 h
[27] = test system: normal primary NK cells, pool 1 (3 donors) (IL-2 2.5 ng/mL); test: as above; conditions: 72 h
[28] = test system: normal NK cells expanded with K562-aAPC; test: drug sensitivity score (DSS) (DSS units); higher = more sensitive; extreme values may be limits of the assay; conditions: 72 h; IL-2 2.5 ng/mL
Procedure: as §1

Cc1cc([C@@H](C)Nc2ccccc2C(=O)O)c2nc(N3CCOCC3)cc(=O)n2c1 [AZD-6482] (max concentration tested 2500 nM)
percent inhibition of viability [%]
Conditions | 0.25 nM | 2.5 nM | 25 nM | 250 nM | 2500 nM
[1] | -0.89 | -3.51 | 0.58 | 12.4 | 16.6
[15] | 1.92 | -14.9 | -3.13 | -1.54 | 14
[16] | -4.2 | -4.4 | 3.19 | 2.6 | 17
[17] | -9.49 | -6.79 | 13.8 | -3.71 | 13
[18] | -5.85 | -0.65 | -3.24 | 1.82 | 7.93
[19] | 2.09 | 3.67 | 7.43 | 14.2 | 28.4
[20] | -0.9 | 1.99 | 2.56 | 6.11 | 8.71
[21] | -8.01 | -6.53 | 4.21 | 8.86 | 41.9
[22] | 17.7 | 22.5 | 28.9 | 18.4 | 9.67
[23] | -5.18 | 0.99 | 18.9 | 5.04 | 17.1
[24] | -13.3 | 2.45 | -1.09 | 6.43 | -3.2
[25] | -5.33 | -1.23 | -3.08 | 0.81 | 7.94
[26] | 1.39 | 3.21 | 2.72 | 3.93 | -5.9
[27] | -3.99 | -0.34 | 5.64 | 2.68 | 19.6

Conditions | drug sensitivity score
[2] | 0.12
[3] | 0.68
[4] | 0.05
[5] | 0
[6] | 2.58
[7] | 0
[8] | 3.55
[9] | 0.11
[10] | 1.26
[11] | 0
[12] | 0
[13] | 0
[14] | 0.92
[28] | 1.31

CC(C)c1c(C(=O)Nc2ccccc2)c(-c2ccccc2)c(-c2ccc(F)cc2)n1CC[C@@H](O)C[C@@H](O)CC(=O)O [Atorvastatin] (max concentration tested 10000 nM)
percent inhibition of viability [%]
Conditions | 1 nM | 10 nM | 100 nM | 1000 nM | 10000 nM
[1] | -5.69 | -0.26 | -0.77 | -4.84 | 28.3
[15] | -1.6 | -6.76 | -4.51 | 2.54 | 45.6
[16] | -2.58 | -0.16 | -3.51 | 6.56 | 54.2
[17] | -6.89 | -6.08 | -9.88 | -12.8 | 4.72
[18] | -7.62 | -6.46 | -2.5 | 3.32 | 63.8
[19] | 0.23 | 1.11 | 4.51 | 22.4 | 99.1
[20] | 1.48 | -0.11 | 9.42 | 7.71 | 81.3
[21] | -10.9 | -15.5 | 4.4 | -6.37 | 58.2
[22] | -3.12 | 4.06 | 1.93 | 0.27 | 41.9
[23] | -7.16 | -1.31 | 1.87 | -2.86 | 29.2
[24] | -16 | -12.1 | 14.8 | 83.8 | 102
[25] | 0.24 | 1.58 | 11.9 | 64.8 | 103
[26] | -2.01 | 0.19 | 4.44 | 25.6 | 99.2
[27] | -3.15 | -14.1 | -7.04 | -6.72 | 27.1

Conditions | drug sensitivity score
[2] | 2.71
[3] | 4
[4] | 0
[5] | 3.95
[6] | 9
[7] | 5.76
[8] | 2.7
[9] | 2.14
[10] | 1.06
[11] | 17.2
[12] | 14
[13] | 9.38
[14] | 0.79
[28] | 0.92

CC(C)[C@H](C(=O)Nc1ccc(C(=O)NO)cc1)c1ccccc1 [AR-42] (max concentration tested 10000 nM)
percent inhibition of viability [%]
Conditions | 1 nM | 10 nM | 100 nM | 1000 nM | 10000 nM
[1] | 5.85 | 0.8 | 9.74 | 87.9 | 101
[15] | -9.37 | -0.47 | 13.4 | 77.4 | 88.7
[16] | -0.01 | 2.48 | -2.69 | 100 | 101
[17] | -3.19 | -1.6 | -0.03 | 82 | 98.4
[18] | -2.48 | 10.7 | 56.8 | 93.1 | 109
[19] | -2.57 | 0.39 | 5.64 | 75.6 | 108
[20] | -2.7 | -4.06 | 8.15 | 104 | 109
[21] | -16.8 | -2.43 | 34.6 | 104 | 109
[22] | -0.12 | 1.49 | 22.2 | 88.3 | 101
[23] | -13.5 | -9.96 | 3.39 | 82.8 | 94.9
[24] | -5.13 | -4.69 | 35.2 | 77.5 | 107
[25] | -6.36 | -5.82 | 4.66 | 76.3 | 108
[26] | -2.38 | -3.46 | 10.1 | 92.8 | 101
[27] | 2.55 | 6.41 | 6.74 | 85.7 | 97.5

Conditions | drug sensitivity score
[2] | 15.9
[3] | 17.7
[4] | 15
[5] | 24.6
[6] | 14.9
[7] | 19.4
[8] | 22.9
[9] | 18.9
[10] | 15.4
[11] | 18.9
[12] | 14.8
[13] | 18.3
[14] | 16.6
[28] | 17.3

NC1(c2ccc(-c3nc4ccn5c(=O)[nH]nc5c4cc3-c3ccccc3)cc2)CCC1 [MK-2206] (max concentration tested 1000 nM)
percent inhibition of viability [%]
Conditions | 0.1 nM | 1 nM | 10 nM | 100 nM | 1000 nM
[1] | -2.31 | 2.49 | 7.6 | 28.5 | 45.6
[15] | 11.9 | -0.15 | 13.2 | 11.8 | 43
[16] | -1.61 | 2.78 | 9.98 | 34.8 | 76
[17] | -11.3 | -6.35 | -0.77 | 8.45 | 19.7
[18] | 0.47 | -1.02 | 11.1 | 11.8 | 17.4
[19] | -0.31 | -0.89 | 5.71 | 2.26 | 10.1
[20] | -0.27 | 8.2 | 6.87 | 6.05 | 14.9
[21] | -0.6 | -11 | 14.7 | 21.1 | 42.8
[22] | -2.51 | -8.62 | 3.89 | 0.46 | 24.3
[23] | -7.56 | 2.73 | 8.98 | 12.9 | 34.8
[24] | -12.3 | -6.86 | -5.82 | 11.8 | 4.37
[25] | 2 | 1.38 | 5.87 | 2.52 | 14.5
[26] | -4.35 | -1.09 | -0.11 | -1.78 | 9.7
[27] | -0.91 | -7.29 | 2.37 | 6.7 | 21.3

Conditions | drug sensitivity score
[2] | 3.29
[3] | 8.28
[4] | 1.47
[5] | 1.8
[6] | 0
[7] | 0.23
[8] | 4.95
[9] | 0.95
[10] | 2.88
[11] | 0
[12] | 0.39
[13] | 0
[14] | 1.31
[28] | 5.95

Nc1nc(Cl)nc2c1ncn2[C@@H]1O[C@H](CO)[C@@H](O)[C@@H]1F [Clofarabine] (max concentration tested 10000 nM)
percent inhibition of viability [%]
Conditions | 1 nM | 10 nM | 100 nM | 1000 nM | 10000 nM
[1] | -7.69 | 10 | 99.8 | 100 | 101
[15] | -1.53 | 61.1 | 92.3 | 90.6 | 93.4
[16] | -6.34 | 12.4 | 98.8 | 100 | 100
[17] | -5.8 | 12.6 | 91 | 98.5 | 99.3
[18] | -5.93 | 2 | 84.8 | 100 | 103
[19] | -2.64 | -4.64 | 17.5 | 78.8 | 85.4
[20] | -5.63 | -3.93 | 98.4 | 101 | 102
[21] | -17 | 2.38 | 98.2 | 101 | 104
[22] | -9.36 | -23.6 | 95 | 96.3 | 98.6
[23] | 1.6 | 18 | 90.5 | 95 | 96.2
[24] | -14.3 | -3.55 | 97.4 | 102 | 105
[25] | -2.94 | -3.43 | 73.3 | 96.5 | 100
[26] | -5.2 | -10.7 | 83.5 | 99.8 | 100
[27] | 1.34 | 32.7 | 95.2 | 96.8 | 97.6

Conditions | drug sensitivity score
[2] | 35.8
[3] | 32.5
[4] | 30.7
[5] | 28
[6] | 16.8
[7] | 29.9
[8] | 30.5
[9] | 28.5
[10] | 31
[11] | 29.8
[12] | 26.4
[13] | 27.6
[14] | 33.7
[28] | 32.1

— the supplement of paper PMC5908809
